Patent US4996227A, “3-(heteroarylalkyene)- and 3-(arylalkylene)-2,4(3H,5H)-heterocyclic diones as cancer chemotherapy drugs” (priority 1989, dated 1991)

Key:
[1] = tested on: human tumor H5325 SARCOMA; experiment: Human Tumor Stem Cell Assay, colony growth after one hour exposure; assay type: cell-based; details: 1 h
[2] = tested on: human tumor H5337 COLON; experiment: as above; assay type: cell-based; details: 1 h
[3] = tested on: healthy mice; experiment: Toxicology testing in healthy mice: hematology; assay type: in vivo; details: for Absolute Neutrophils / Hemoglobin / WBC: i.p.
Procedure: (§1) The purpose of this example was to determine approximate toxicity of the compound 3[(5-methyl-2-thienyl) methylene]-2,4(3H,5H)-furandione in healthy mice. The in vivo concentrations employed in the example were selected by using the in vitro results in the Human Tumor Stem Cell Assay as a guide. The compound was given to the mice by means of intra-peritoneal injection. In addition to a control group which was injected with the appropriate carrier solution without drug, three test groups with calculated plasma concentrations of 1, 10 and 100 mcg/ml (low, medium and high concentrations) were prepared. Based upon the results from Table 1, the three test groups represent low, medium and high concentrations of drug dosages. The highest concentration of 100 mcg/ml is about 10 times the predicted effective dose (in vivo) of tumoricidal activity. Each group contained eight animals. Blood was extracted from four animals in each group two days after the intraperitoneal injection and routine hematology (i.e., a hemoglobin concentration, a white blood cell count, and a neutrophil count) procedures were performed.
(§2) Half of the animals in each group were sacrificed after one week (Day 7), and the remaining animals in each group were sacrificed after two weeks (Day 14). Routine hematology was performed at the time of sacrifice.

[4] = tested on: healthy mice; experiment: Toxicology testing in healthy mice: deaths / LD50; assay type: in vivo; details: i.p.
Procedure: as §1, §2

[5] = tested on: K562 cells (human chronic granulocytic leukemia); experiment: K562 human leukemia cell suspension culture, cell concentration; assay type: cell-based; details: 1 ug/ml
Procedure: In this example, 1 mcg/ml of 3[[5-methyl-2-thienyl]methylene]2, 4 (3H, 5H) furandione was compared to 1 mcg/ml of 3[[3-methyl-2-thienyl]methylene]2, 4 (3H, 5H) furandione.
A conventionally available cell line (K562) derived from human chronic granulocytic leukemia was employed in an in vitro procedure. The leukemia cell line was cultured in a suspension of RPMI 1640 plus 10% fetal calf serum. All initial cell concentrations for the cultures were 0.65 times 10^5 cells/ml. Four separate suspension cultures were employed with the first suspension culture having no additions. The second suspension culture included 100 microliters of the solvent DMSO per 10 ml of culture (control). The third culture contained 1 ug/ml of 3[[5-methyl-2 thienyl]methylene]-2, 4 (3H, 5H) furandione and the fourth culture contained 1 ug/ml of 3[[3-methyl-2-thienyl]methylene]-2, 4 (3H, 5H) furandione. The cell concentration of each of the four cultures was determined. After three days and again after five days.

[6] = HI: furandione 1.0 mcg/ml, standard drugs 50% of peak plasma concentration
[7] = LO: furandione 0.2 mcg/ml, standard drugs 10% of peak plasma concentration
[8] = high, 100 mcg/ml calculated plasma, Day 2
[9] = high, 100 mcg/ml calculated plasma, Day 7
[10] = high, 100 mcg/ml calculated plasma, Day 14
[11] = low, 1 mcg/ml calculated plasma, Day 2
[12] = low, 1 mcg/ml calculated plasma, Day 7
[13] = low, 1 mcg/ml calculated plasma, Day 14
[14] = medium, 10 mcg/ml calculated plasma, Day 2
[15] = medium, 10 mcg/ml calculated plasma, Day 7
[16] = medium, 10 mcg/ml calculated plasma, Day 14

## Cc1ccc(C=C2C(=O)COC2=O)s1 [Compound 4, 3[(5-methyl-2-thienyl)methylene]2,4(3H,5H)-furandione]
[1]; [6]
  percentage of growth (colonies vs control): 22%
[1]; [7]
  percentage of growth (colonies vs control): 44%
[2]; [6]
  percentage of growth (colonies vs control): 36%
[2]; [7]
  percentage of growth (colonies vs control): 58%
[3]; after one week
  absolute neutrophil count, change: significant decrease in the absolute neutrophil count after one week, indicating suppression of bone marrow
[3]; all groups
  total white blood cell count, change: slightly decreased from Day 2 to Day 7, the count increased in all groups from Day 7 to Day 14
[3]; all test groups, 14-day test period
  hemoglobin levels, change: no significant decreases in hemoglobin levels
[3]; at drug level predicted by the in vitro assay
  myelosuppression in vivo: some myelosuppression in vivo
[3]; blood smears
  platelet count, change: platelet count was not significantly decreased
[3]; [8]
  Absolute Neutrophils: 5224 cells/ul
  Hemoglobin: 13.2 g/100 ml
  WBC: 9594 Cells/ul
[3]; [9]
  Hemoglobin: 13.6 g/100 ml
  WBC: 5775 Cells/ul
[3]; high, 100 mcg/ml calculated plasma, Day 7 (text SD=622), 4 (3H, 5H) FURANDIONE
  Absolute Neutrophils: 1167 cells/ul
[3]; high, 100 mcg/ml calculated plasma, Day 7 (text SD=622), listed as tested furandione compound
  Absolute Neutrophils: 1,167 cells/ul
[3]; [10]
  Absolute Neutrophils: 2025 cells/ul
  Hemoglobin: 13.9 g/100 ml
  WBC: 12,175 Cells/ul
[3]; [11]
  Absolute Neutrophils: 2869 cells/ul
  Hemoglobin: 13.7 g/100 ml
  WBC: 7000 Cells/ul
[3]; [12]
  Hemoglobin: 14.25 g/100 ml
  WBC: 6562 Cells/ul
[3]; low, 1 mcg/ml calculated plasma, Day 7 (text SD=942), 4 (3H, 5H) FURANDIONE
  Absolute Neutrophils: 1731 cells/ul
[3]; low, 1 mcg/ml calculated plasma, Day 7 (text SD=942), listed as tested furandione compound
  Absolute Neutrophils: 1,731 cells/ul
[3]; [13]
  Hemoglobin: 13.6 g/100 ml
  WBC: 9675 Cells/ul
[3]; low, 1 mcg/ml calculated plasma, Day 14, three animals
  Absolute Neutrophils: 2183 cells/ul
[3]; low, 1 mcg/ml, Day 7
  neutrophil difference vs control: no significant difference between the control and the low concentration group
[3]; [14]
  Absolute Neutrophils: 3946 cells/ul
  Hemoglobin: 13.6 g/100 ml
  WBC: 7787 Cells/ul
[3]; [15]
  Hemoglobin: 13.9 g/100 ml
  WBC: 5812 Cells/ul
[3]; medium, 10 mcg/ml calculated plasma, Day 7 (text SD=492), 4 (3H, 5H) FURANDIONE
  Absolute Neutrophils: 1009 cells/ul
[3]; medium, 10 mcg/ml calculated plasma, Day 7 (text SD=492), listed as tested furandione compound
  Absolute Neutrophils: 1,009 cells/ul
[3]; [16]
  Hemoglobin: 13.6 g/100 ml
  WBC: 8700 Cells/ul
[3]; medium, 10 mcg/ml calculated plasma, Day 14, three animals
  Absolute Neutrophils: 1256 cells/ul
[3]; medium, 10 mcg/ml, Day 7
  P, neutrophil difference vs control: < 0.05
[4]; 1, 10, 100 mcg/ml calculated plasma, testing period
  deaths due to the compound: no deaths
[4]; as calculated plasma concentration
  LD50: > 100 µg/mL
[5]
  effect on leukemia culture: very effective against the leukemia culture as demonstrated by the remarkable decrease in cell concentration
[5]; 3 Days
  Cell Conc.: 70000 mL⁻¹
[5]; 5 Days
  Cell Conc.: 50000 mL⁻¹
